Reference: US7473709B2, “11β-benzaldoxime derivatives of D-homooestra-4,9-dien-3-ones” (Bayer Schering Pharma AG, priority 2005, dated 2009)

Legend:
[1] = target: T1, Glucocorticoid receptor (GR) (Rattus norvegicus, UniProt P06536); assay: Receptor binding affinity, glucocorticoid receptor (competitive binding with 3H-dexamethasone); details: for Glucocorticoid receptor (GR) dexamethasone = 100% (relative molar binding affinity, RBA): thymus cytosol of adrenalectomized rat, tracer 3H-dexamethasone 20 nM, reference dexamethasone = 100%
T1 construct: receptors in the cytosol from animal target organs; from tissue; host or cells: thymus cytosol of adrenalectomized rat
T1 sequence (P06536 1-795): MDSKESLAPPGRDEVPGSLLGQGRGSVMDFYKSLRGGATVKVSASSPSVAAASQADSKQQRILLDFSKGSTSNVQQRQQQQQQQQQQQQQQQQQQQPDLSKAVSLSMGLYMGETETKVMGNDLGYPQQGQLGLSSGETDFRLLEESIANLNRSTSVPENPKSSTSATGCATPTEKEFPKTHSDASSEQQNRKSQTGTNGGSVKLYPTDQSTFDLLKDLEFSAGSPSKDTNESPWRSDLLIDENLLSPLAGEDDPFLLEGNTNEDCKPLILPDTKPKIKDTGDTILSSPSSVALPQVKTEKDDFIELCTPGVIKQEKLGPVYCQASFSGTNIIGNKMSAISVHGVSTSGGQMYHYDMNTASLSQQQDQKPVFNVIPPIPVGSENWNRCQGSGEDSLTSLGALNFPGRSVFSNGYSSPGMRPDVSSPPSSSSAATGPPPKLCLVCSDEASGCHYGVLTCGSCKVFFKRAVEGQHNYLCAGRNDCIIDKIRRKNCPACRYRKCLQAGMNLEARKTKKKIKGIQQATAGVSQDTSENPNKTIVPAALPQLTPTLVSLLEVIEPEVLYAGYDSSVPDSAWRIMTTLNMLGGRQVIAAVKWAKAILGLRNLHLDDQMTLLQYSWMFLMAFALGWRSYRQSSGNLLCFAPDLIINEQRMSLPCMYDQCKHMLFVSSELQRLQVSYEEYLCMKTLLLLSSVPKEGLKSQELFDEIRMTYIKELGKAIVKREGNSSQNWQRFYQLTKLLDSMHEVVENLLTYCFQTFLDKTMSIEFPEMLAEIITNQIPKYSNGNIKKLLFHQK
Experimental: (§1) The receptor binding affinity was determined by the competitive binding of a specifically binding ^3H-labelled hormone (tracer) and the test compound to receptors in the cytosol from animal target organs, with the aim of achieving receptor saturation and reaction equilibrium.
(§2) The tracer and increasing concentrations of the test compound (competitor) were coincubated with the receptor-containing cytosol fraction at 0-4° C. for 18 h. After separation of the unbound tracer with a carbon/dextran suspension, the proportion of receptor-bound tracer was measured for each concentration and the IC50 was determined from the concentration series.
(§3) The following incubation conditions were chosen for the individual receptor types:
Thymus cytosol of the adrenalectomized rat, thymi stored at −30° C.; buffer: TED. Tracer: ^3H-dexamethasone, 20 nM; reference substance: dexamethasone.

[2] = target: T2, Progesterone receptor (PR) (Oryctolagus cuniculus, UniProt P06186); assay: Receptor binding affinity, progesterone receptor (competitive binding with 3H-ORG 2058); details: uterus cytosol of oestradiol-primed rabbit; tracer 3H-ORG 2058 5 nM; reference progesterone = 100%
T2 construct: receptors in the cytosol from animal target organs; from tissue; host or cells: uterus cytosol of oestradiol-primed rabbit
T2 sequence (P06186 1-930): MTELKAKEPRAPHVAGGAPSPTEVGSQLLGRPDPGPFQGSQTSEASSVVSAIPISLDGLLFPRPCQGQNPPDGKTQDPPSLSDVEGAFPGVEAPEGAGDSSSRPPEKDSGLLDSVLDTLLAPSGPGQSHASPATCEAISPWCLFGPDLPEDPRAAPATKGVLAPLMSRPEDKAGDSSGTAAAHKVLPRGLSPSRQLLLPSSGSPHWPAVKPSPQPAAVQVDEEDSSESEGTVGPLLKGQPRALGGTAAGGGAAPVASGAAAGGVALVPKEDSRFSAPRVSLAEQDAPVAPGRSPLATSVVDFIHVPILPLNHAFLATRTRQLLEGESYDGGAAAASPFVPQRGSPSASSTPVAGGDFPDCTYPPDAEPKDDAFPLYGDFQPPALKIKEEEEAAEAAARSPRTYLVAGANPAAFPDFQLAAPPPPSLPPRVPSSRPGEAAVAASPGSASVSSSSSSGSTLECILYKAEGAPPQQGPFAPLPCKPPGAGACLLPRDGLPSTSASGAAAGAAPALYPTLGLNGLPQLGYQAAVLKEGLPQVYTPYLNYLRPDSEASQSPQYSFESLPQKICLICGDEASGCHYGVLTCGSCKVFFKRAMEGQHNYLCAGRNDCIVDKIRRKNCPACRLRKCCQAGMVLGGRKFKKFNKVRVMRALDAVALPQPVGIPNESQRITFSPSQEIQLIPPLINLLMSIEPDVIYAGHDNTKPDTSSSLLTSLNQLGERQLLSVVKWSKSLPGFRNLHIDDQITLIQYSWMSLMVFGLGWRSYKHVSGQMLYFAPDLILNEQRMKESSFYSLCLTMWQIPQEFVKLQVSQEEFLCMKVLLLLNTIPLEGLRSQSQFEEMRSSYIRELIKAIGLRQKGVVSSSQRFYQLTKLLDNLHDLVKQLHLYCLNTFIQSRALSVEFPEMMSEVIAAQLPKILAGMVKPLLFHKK
Experimental: as §1, §2, §3
Uterus cytosol of the oestradiol-primed rabbit, homogenized in TED buffer (20 mM Tris/HCI, pH 7.4; 1 mM ethylenediaminetetraacetate, 2 mM dithiothreitol) containing 250 mM sucrose; kept at −30° C.

Molecule | Ratio GR/PR ([1]; ratio of RBA at GR to RBA at PR) | Glucocorticoid receptor (GR) dexamethasone = 100% (relative molar binding affinity, RBA) [1] [%] | Progesterone receptor (PR) progesterone = 100% (relative molar binding affinity, RBA) [2] [%]
4-[17aβ-Methoxy-17aα-(methoxymethyl)-17a-homo-3-oxooestra-4,9-dien-11β-yl]benzaldehyde (1E)-[O-(ethylamino)carbonyl]oxime [Example 6] | 2.8 | 450 | 158
CC#C[C@]1(O)CC[C@H]2[C@@H]3CCC4=CC(=O)CCC4=C3[C@@H](c3ccc(N(C)C)cc3)C[C@@]21C [RU 38486, mifepristone] | – | 683 | –
